The subject of data set [1] is dog. Conditions: Chronic toxicity; beagle; Oral; Feed; dose end: 52 week; group: systemic; systemic / clinical chemistry / bilirubin / total bilirubin + systemic / hematology / erythrocyte (rbc) count differential / erythrocyte (….
Data set [2] has as its system rat. To be noted: Combined chronic toxicity/carcinogenicity, sprague dawley, Oral, Feed, dose end: 24 month, group: systemic.
For data set [3], the system named is mouse. Conditions: Subchronic oral toxicity in rodents, cd1, Feed, dose end: 90 day, group: systemic.
Data set [4] has as its system rat. Conditions: Subchronic oral toxicity in rodents, sprague dawley, Feed, dose end: 13 week, group: systemic.
In data set [5] the test system is rat. To be noted: Multigenerational reproductive toxicity study, sprague dawley, Oral, Feed, dose end: 2 generation.
In data set [6] the test system is mouse. Conditions: Carcinogenicity, cd1, Oral, Feed, dose end: 18 month, group: systemic.
The subject of data set [7] is dog. Conditions: Subchronic oral toxicity in nonrodent, beagle, Feed, dose end: 90 day, group: systemic.
Data set [8] deals with rat. Conditions: Prenatal developmental toxicity study; sprague dawley; Oral; Gavage/Intubation; dose end: 20 GD; group: maternal; systemic / in life observation / body weight / body weight gain.
For data set [9], the system named is rat. To be noted: Chronic toxicity, sprague dawley, Oral, Gavage/Intubation, dose end: 53 week, group: systemic.
In data set [10] the test system is rat. To be noted: Developmental neurotoxicity study; fischer; Injection; Intraperitoneal; dose end: 30 PND; group: cannot be grouped; systemic / in life observation / body weight / offspring (pup) weight.
The mark [11] stands for this setting: systemic / hematology / erythrocyte (rbc) count differential / erythrocyte (rbc) + systemic / hematology / hematocrit (hct) / hematocrit (….
Where [12] appears, read: systemic / in life observation / body weight / body weight gain.
Setting [13] is: systemic / in life observation / body weight / body weight gain + systemic / clinical chemistry / alkaline phosphatase (alp/alk) / alkaline ….
[14] abbreviates: systemic / hematology / erythrocyte (rbc) count differential / erythrocyte (rbc) + systemic / hematology / hemoglobin (hgb) / hemoglobin (….
Where [15] appears, read: group: offspring, developmental / offspring survival late / viability index / viability index.
[16] abbreviates: group: parental, systemic / pathology microscopic / spleen / pigmentation.
The mark [17] stands for this setting: group: parental, systemic / pathology microscopic / spleen / pigmentation + systemic / in life observation / body weight / body weight + systemic / in life ….
Where [18] appears, read: group: reproductive, reproductive / offspring survival early / birth index / live birth index.
Where [19] appears, read: systemic / in life observation / mortality / mortality.
[20] abbreviates: systemic / hematology / heinz body / heinz body + systemic / hematology / hematocrit (hct) / hematocrit (hct) + systemic / hematology / ….
Where [21] appears, read: systemic / urinalysis / appearance and color / appearance and color.
The mark [22] stands for this setting: systemic / clinical chemistry / alkaline phosphatase (alp/alk) / alkaline phosphatase (alp/alk) + systemic / clinical chemistry / aspartate ….
[23] abbreviates: systemic / hematology / monocytes / monocytes + systemic / in life observation / clinical signs / salivation.

The record followed here is EPA's ToxRefDB 2.

As a reminder, the LOAEL is the lowest dose or exposure tested at which an adverse effect was seen. One may read the NOAEL as the highest dose or exposure tested at which no adverse effect was seen. Consider `CCc1ccc(C(=O)NN(C(=O)c2cc(C)cc(C)c2)C(C)(C)C)cc1` [Tebufenozide], for which the LEL with dog [1] came to 7 mg/kg/day; with rat [2] (systemic / pathology gross / ovary / cyst) it was 6 mg/kg/day; in the data set on mouse [3] (setting [12]), 35.3 mg/kg/day; in the data set on rat [4] (systemic / organ weight / testes / relative to body weight), 13.1 mg/kg/day; in the data set on rat [5] (setting [15]), 155 mg/kg/day; with rat [5] (setting [16]), 11.5 mg/kg/day. In addition, the LEL in the data set on rat [5] (setting [18]) turned out to be 155 mg/kg/day; with mouse [6] (setting [19]), 0.8 mg/kg/day; with dog [7] (setting [21]), 2.1 mg/kg/day. Further, the LOAEL in the data set on dog [1] was 7 mg/kg/day; in the data set on rat [2] (setting [11]), 48 mg/kg/day; in the data set on mouse [3] (setting [12]), 35.3 mg/kg/day; with rat [4] (setting [14]), 133 mg/kg/day; in the data set on rat [5] (setting [15]), greater than 155 mg/kg/day; in the data set on rat [5] (setting [16]), 11.5 mg/kg/day. Besides, the LOAEL in the data set with rat [5] (setting [18]) amounted to 155 mg/kg/day; in the data set on mouse [6] (systemic / in life observation / mortality / mortality + systemic / pathology microscopic / spleen / pigmentation + systemic / organ weight…) it was 78 mg/kg/day; with dog [7] (setting [20]), 20.1 mg/kg/day. Further, the NEL in the data set with dog [1] was found to be 1.6 mg/kg/day; with rat [2] (systemic / pathology gross / ovary / cyst + systemic / organ weight / adrenal gland / relative to body weight + systemic / organ weight / …), 0.6 mg/kg/day; in the data set on mouse [3] (setting [13]), 3.4 mg/kg/day; with rat [4] (setting [14]) it was 1.3 mg/kg/day; in the data set on rat [5] (setting [15]), 11.5 mg/kg/day; in the data set with rat [5] (setting [17]), 0.8 mg/kg/day. Besides, the figures for the NEL in the data set with rat [5] (setting [18]), with mouse [6] (setting [19]) and with dog [7] (setting [21]) were 11.5 mg/kg/day, less than 0.8 mg/kg/day and less than 2.1 mg/kg/day, respectively. Moreover, the NOAEL in the data set on dog [1] was 1.6 mg/kg/day; in the data set with rat [2] (setting [11]), 5 mg/kg/day; in the data set with mouse [3] (setting [13]), 3.4 mg/kg/day; in the data set with rat [4] (setting [14]), 13.1 mg/kg/day; in the data set on rat [5] (setting [15]), no less than 155 mg/kg/day; in the data set on rat [5] (setting [17]), 0.8 mg/kg/day. Moreover, the figures for the NOAEL in the data set on rat [5] (setting [18]), in the data set on mouse [6] (systemic / pathology microscopic / spleen / pigmentation + systemic / organ weight / spleen / absolute) and with dog [7] (setting [20]) were 11.5 mg/kg/day, 7.8 mg/kg/day and 2.1 mg/kg/day, respectively.
In the data set with rat [8], `CO[C@@H]1COCC[C@@H]1[NH2+][C@@H]1CC[C@@](C(=O)N2CCc3ncc(C(F)(F)F)cc3C2)(C(C)C)C1.O=C([O-])CCC(=O)O` [MK-812] came in with an LEL of 30 mg/kg/day, an LOAEL greater than 30 mg/kg/day, an NEL of 10 mg/kg/day and an NOAEL of no less than 30 mg/kg/day. In addition, in the data set with rat [9] (setting [22]), the LOAEL was greater than 80 mg/kg/day and the NOAEL is no less than 80 mg/kg/day. In the data set on rat [9] (setting [23]), the LEL amounted to 5 mg/kg/day and the NEL is less than 5 mg/kg/day.
`CN=C1CN(O)C(c2ccccc2)=c2cc(Cl)ccc2=N1` [Chlordiazepoxide]: in the data set with rat [10], the LEL is 1 mg/kg/day, the lowest-observed-adverse-effect level (LOAEL) is greater than 1 mg/kg/day, the NEL is less than 1 mg/kg/day and the no-observed-adverse-effect level (NOAEL) is no less than 1 mg/kg/day.
